According to ChEMBL document CHEMBL5113452, “Synthesis and biological evaluation of hybrids from optically active ring-opened 3-N-butylphthalide derivatives and 4-fluro-edaravone as potential anti-acute ischemic stroke agents” (Bioorg Med Chem, 2022):
The source made the active and inactive calls. The calls are words filed in the database; no cut-off is given here.

Tests used:
Rattus norvegicus [1] = experiment: Neuroprotective activity against transient middle cerebral artery occlusion induced ischemia stroke Sprague-Dawley rat model assessed as increase in neuro-fucntional score at 4.53 mg/kg, iv and measured after 24 hrs by longa's method; format: functional, organism-based
[2] = MRT in Sprague-Dawley rat plasma at 4.53 mg/kg, iv and measured upto 24 hrs in presence of S-NBP by LC-MS/MS analysis; format: ADME, organism-based
Rattus norvegicus [3] = experiment: Neuroprotective activity against transient middle cerebral artery occlusion induced cerebral infraction Sprague-Dawley rat model assessed as decrease in brain edema at 4.53 mg/kg, iv and measured after 24 hrs in presence of […]; format: functional, organism-based
[4] = Half life in Sprague-Dawley rat plasma at 4.53 mg/kg, iv and measured upto 24 hrs by LC-MS/MS analysis; format: ADME, organism-based
[5] = AUC (0-t) in Sprague-Dawley rat plasma at 4.53 mg/kg, iv and measured upto 24 hrs by LC-MS/MS analysis; format: ADME, organism-based; parameters: dose 4.53 mg/kg, time < 24 hrs, route iv
[6] = Toxicity in transient middle cerebral artery occlusion induced ischemia stroke Sprague-Dawley rat model assessed as change in body weight at 4.53 mg/kg, iv and measured after 24 hrs in presence of S-APB; format: organism-based; conditions: in vivo
[7] = AUMC (0-t) in Sprague-Dawley rat plasma at 4.53 mg/kg, iv and measured upto 24 hrs by LC-MS/MS analysis; format: ADME, organism-based; conditions: in vivo
[8] = AUMC (0-infinity) in Sprague-Dawley rat plasma at 4.53 mg/kg, iv and measured upto 24 hrs in presence of S-NBP by LC-MS/MS analysis; format: ADME, organism-based; conditions: in vivo
[9] = C0 in Sprague-Dawley rat plasma at 4.53 mg/kg, iv and measured upto 24 hrs in presence of S-NBP by LC-MS/MS analysis; format: ADME, organism-based
[10] = Toxicity in transient middle cerebral artery occlusion induced ischemia stroke Sprague-Dawley rat model assessed as change in body weight at 4.10 mg/kg, iv and measured after 24 hrs in presence of NBP; format: organism-based; conditions: in vivo, 4.1 mg/kg
Rattus norvegicus [11] = experiment: Neuroprotective activity against transient middle cerebral artery occlusion induced cerebral infraction Sprague-Dawley rat model assessed as decrease in cerebral infraction volume at 4.53 mg/kg, iv and measured after 24 hrs in presence of S-APB by TTC staining based assay; format: functional; parameters: scale not given: the % may be the effect or the level left
[12] = Elimination rate constant in Sprague-Dawley rat plasma at 4.53 mg/kg, iv and measured upto 24 hrs by LC-MS/MS analysis; format: ADME, organism-based
[13] = C0 in Sprague-Dawley rat plasma at 4.53 mg/kg, iv and measured upto 24 hrs by LC-MS/MS analysis; format: ADME, organism-based
[14] = AUC (0-infinity) in Sprague-Dawley rat plasma at 4.53 mg/kg, iv and measured upto 24 hrs by LC-MS/MS analysis; format: ADME, organism-based; parameters: time < 24 hrs, dose 4.53 mg/kg, route iv
Rattus norvegicus [15] = experiment: Neuroprotective activity against transient middle cerebral artery occlusion induced cerebral infraction Sprague-Dawley rat model assessed as decrease in cerebral infraction volume at 4.53 mg/kg, iv and measured after 24 hrs by TTC staining based assay; format: functional; parameters: scale not given: the % may be the effect or the level left
Rattus norvegicus [16] = experiment: Neuroprotective activity against transient middle cerebral artery occlusion induced cerebral infraction Sprague-Dawley rat model assessed as decrease in brain edema at 4.10 mg/kg, iv and measured after 24 hrs in presence of NBP; format: functional, organism-based; conditions: dose 4.1 mg/kg
[17] = Volume of distribution at steady state in Sprague-Dawley rat plasma at 4.53 mg/kg, iv and measured upto 24 hrs in presence of S-NBP by LC-MS/MS analysis; format: ADME, organism-based; conditions: read-out: Vdss
Rattus norvegicus [18] = experiment: Neuroprotective activity against transient middle cerebral artery occlusion induced ischemia stroke Sprague-Dawley rat model assessed as increase in neuro-fucntional score at 4.10 mg/kg, iv and measured after 24 hrs in presence of NBP by longa's method; format: functional, organism-based; conditions: dose 4.1 mg/kg
[19] = Clearance in Sprague-Dawley rat plasma at 4.53 mg/kg, iv and measured upto 24 hrs in presence of S-NBP by LC-MS/MS analysis; format: ADME, organism-based
[20] = AUMC (0-infinity) in Sprague-Dawley rat plasma at 4.53 mg/kg, iv and measured upto 24 hrs by LC-MS/MS analysis; format: ADME, organism-based; conditions: in vivo
[21] = Volume of distribution at steady state in Sprague-Dawley rat plasma at 4.53 mg/kg, iv and measured upto 24 hrs by LC-MS/MS analysis; format: ADME, organism-based; conditions: read-out: Vdss
[22] = Toxicity in transient middle cerebral artery occlusion induced ischemia stroke Sprague-Dawley rat model assessed as change in body weight at 4.53 mg/kg, iv and measured after 24 hrs; format: organism-based; conditions: in vivo
[23] = Clearance in Sprague-Dawley rat plasma at 4.53 mg/kg, iv and measured upto 24 hrs by LC-MS/MS analysis; format: ADME, organism-based
[24] = AUC (0-t) in Sprague-Dawley rat plasma at 4.53 mg/kg, iv and measured upto 24 hrs in presence of S-NBP by LC-MS/MS analysis; format: ADME, organism-based; parameters: time < 24 hrs, dose 4.53 mg/kg, route iv
[25] = Elimination rate constant in Sprague-Dawley rat plasma at 4.53 mg/kg, iv and measured upto 24 hrs in presence of S-NBP by LC-MS/MS analysis; format: ADME, organism-based
Rattus norvegicus [26] = experiment: Neuroprotective activity against transient middle cerebral artery occlusion induced ischemia stroke Sprague-Dawley rat model assessed as increase in neuro-fucntional score at 4.53 mg/kg, iv and measured after 24 hrs in presence of S-APB by longa's method; format: functional, organism-based
[27] = MRT in Sprague-Dawley rat plasma at 4.53 mg/kg, iv and measured upto 24 hrs by LC-MS/MS analysis; format: ADME, organism-based
[28] = Cmax in Sprague-Dawley rat plasma at 4.53 mg/kg, iv and measured upto 24 hrs by LC-MS/MS analysis; format: ADME, organism-based; parameters: dose 4.53 mg/kg, time < 24 hrs, route iv
[29] = AUMC (0-t) in Sprague-Dawley rat plasma at 4.53 mg/kg, iv and measured upto 24 hrs in presence of S-NBP by LC-MS/MS analysis; format: ADME, organism-based; conditions: in vivo
Rattus norvegicus [30] = experiment: Neuroprotective activity against transient middle cerebral artery occlusion induced cerebral infraction Sprague-Dawley rat model assessed as decrease in cerebral infraction volume at 4.10 mg/kg, iv and measured after 24 hrs in presence of NBP by TTC staining based assay; format: functional; parameters: scale not given: the % may be the effect or the level left; conditions: dose 4.1 mg/kg
[31] = Half life in Sprague-Dawley rat plasma at 4.53 mg/kg, iv and measured upto 24 hrs in presence of S-NBP by LC-MS/MS analysis; format: ADME, organism-based
[32] = AUC (0-infinity) in Sprague-Dawley rat plasma at 4.53 mg/kg, iv and measured upto 24 hrs in presence of S-NBP by LC-MS/MS analysis; format: ADME, organism-based; parameters: time < 24 hrs, dose 4.53 mg/kg, route iv
[33] = Cmax in Sprague-Dawley rat plasma at 4.53 mg/kg, iv and measured upto 24 hrs in presence of S-NBP by LC-MS/MS analysis; format: ADME, organism-based; parameters: time < 24 hrs, dose 4.53 mg/kg, route iv

With `CC1=NN(c2ccc(F)cc2)C(=O)C1` the Activity (Rattus norvegicus [1]) was “Active”, the MRT [2] was 2.1 h and the Activity (Rattus norvegicus [3]) was “Active”. For the same molecule, the half-life [4] was 1.14 h, the AUC(0-t) at 24 h [5] was 1350 ng·h/mL and the Activity [6] was “Non-Toxic”. For the same molecule, the AUMCt [7] was 903 hr.hr.ng/ml, the AUMC [8] was 5830 hr.hr.ng/ml and the C0 at 24 h [9] was 12400 ng/mL. The Activity [10] was “Non-Toxic”, the Activity (Rattus norvegicus [11]) was 68.37% and the k el at 24 h [12] was 0.000171 s⁻¹. It also gave a C0 at 24 h [13] of 4910 ng/mL, an AUC(0-inf) [14] of 1360 ng·h/mL and an Activity (Rattus norvegicus [15]) of 32.46%. The Activity (Rattus norvegicus [16]) was “Active”, the Vd [17] was 3.45 L/kg and the Activity (Rattus norvegicus [18]) was “Active”. The clearance [19] was 27.4 mL/min/kg, the AUMC [20] was 982 hr.hr.ng/ml and the Vd [21] was 2.39 L/kg. For the same molecule, the Activity [22] was “Non-Toxic”, the clearance [23] was 55.9 mL/min/kg and the AUC(0-t) at 24 h [24] was 2750 ng·h/mL. For the same molecule, the k el at 24 h [25] was 3.75e-05 s⁻¹, the Activity (Rattus norvegicus [26]) was “Active” and the MRT [27] was 0.717 h. The Cmax [28] was 2960 ng/mL, the AUMCt [29] was 4690 hr.hr.ng/ml and the Activity (Rattus norvegicus [30]) was 57.7%. It also gave a half-life [31] of 5.16 h, an AUC(0-inf) [32] of 2780 ng·h/mL and a Cmax [33] of 6100 ng/mL.
